Measurements from ChEMBL document CHEMBL1201862, “PubChem BioAssay data set” (2004).
The source made the active and inactive calls.

Experiments:
[1] = target: T1, Mannose-6-phosphate isomerase (Homo sapiens, UniProt P34949); assay: human PMI inhibitors, high substrate, primary screen, biochemical, fluorescence intensity, high mannose 6-phosphate (AID 1220)
T1 sequence (P34949 whole entry): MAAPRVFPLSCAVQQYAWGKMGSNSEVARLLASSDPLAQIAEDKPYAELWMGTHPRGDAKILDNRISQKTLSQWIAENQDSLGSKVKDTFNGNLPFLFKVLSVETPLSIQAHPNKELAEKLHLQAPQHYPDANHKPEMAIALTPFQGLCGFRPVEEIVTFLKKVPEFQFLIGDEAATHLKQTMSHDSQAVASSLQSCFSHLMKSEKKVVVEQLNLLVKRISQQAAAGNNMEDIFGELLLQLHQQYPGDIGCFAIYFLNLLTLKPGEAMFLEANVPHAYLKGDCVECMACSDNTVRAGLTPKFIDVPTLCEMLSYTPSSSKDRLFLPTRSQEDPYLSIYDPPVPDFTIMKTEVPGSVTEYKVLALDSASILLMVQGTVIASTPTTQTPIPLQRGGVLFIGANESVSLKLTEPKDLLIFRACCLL

[2] = target: T2, Insulin-degrading enzyme (Homo sapiens, UniProt P14735); assay: Dose Response: Fluorescence polarization-based cell-based high throughput dose response assay for inhibitors of insulin-degrading enzyme (IDE). [Related pubchem assays: 434962 (Primary screen (IDE inhibitors in singlicate)), 449730 (Counterscreen (Cytotoxicity in triplicate)), 435028 (Confirmation (IDE inhibitors in triplicate)), 434984 (Summary …; format: functional
T2 sequence (P14735 whole entry): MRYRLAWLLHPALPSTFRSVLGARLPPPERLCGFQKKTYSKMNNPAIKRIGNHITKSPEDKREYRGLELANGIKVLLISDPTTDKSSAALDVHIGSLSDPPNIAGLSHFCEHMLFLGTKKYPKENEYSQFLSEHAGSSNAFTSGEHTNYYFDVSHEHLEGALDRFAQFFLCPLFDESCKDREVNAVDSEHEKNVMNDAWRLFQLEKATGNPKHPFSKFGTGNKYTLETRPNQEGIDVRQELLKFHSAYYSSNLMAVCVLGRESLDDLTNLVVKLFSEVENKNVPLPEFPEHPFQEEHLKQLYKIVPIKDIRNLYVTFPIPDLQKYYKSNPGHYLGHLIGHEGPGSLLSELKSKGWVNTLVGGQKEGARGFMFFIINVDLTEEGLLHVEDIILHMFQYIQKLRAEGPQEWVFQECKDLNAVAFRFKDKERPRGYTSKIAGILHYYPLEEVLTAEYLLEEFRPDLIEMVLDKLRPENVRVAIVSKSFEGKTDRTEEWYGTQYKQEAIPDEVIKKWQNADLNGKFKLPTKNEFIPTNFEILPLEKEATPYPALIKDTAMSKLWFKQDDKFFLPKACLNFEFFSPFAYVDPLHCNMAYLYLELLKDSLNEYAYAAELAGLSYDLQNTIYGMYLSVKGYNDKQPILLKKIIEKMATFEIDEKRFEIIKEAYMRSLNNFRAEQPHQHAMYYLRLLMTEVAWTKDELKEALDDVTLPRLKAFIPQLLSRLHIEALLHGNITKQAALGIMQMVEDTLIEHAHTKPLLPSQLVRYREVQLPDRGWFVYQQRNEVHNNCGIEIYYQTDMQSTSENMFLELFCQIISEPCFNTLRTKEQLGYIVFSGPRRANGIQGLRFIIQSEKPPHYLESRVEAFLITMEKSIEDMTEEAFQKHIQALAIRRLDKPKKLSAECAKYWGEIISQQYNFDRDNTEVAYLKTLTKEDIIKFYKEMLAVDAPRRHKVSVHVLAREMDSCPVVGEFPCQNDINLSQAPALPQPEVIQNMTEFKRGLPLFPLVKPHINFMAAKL

[3] = target: T3, Oxysterols receptor LXR-beta (Homo sapiens, UniProt P55055); assay: LXR agonists, Gal4 luciferase reporter, dose response, counter-screen for ssDAF-12 agonist project, cell-based, luminescence, HEK293, S. stercoralis campaign (AID 720737); format: functional; conditions: read-out: IC50 (the source's name)
T3 sequence (P55055 whole entry): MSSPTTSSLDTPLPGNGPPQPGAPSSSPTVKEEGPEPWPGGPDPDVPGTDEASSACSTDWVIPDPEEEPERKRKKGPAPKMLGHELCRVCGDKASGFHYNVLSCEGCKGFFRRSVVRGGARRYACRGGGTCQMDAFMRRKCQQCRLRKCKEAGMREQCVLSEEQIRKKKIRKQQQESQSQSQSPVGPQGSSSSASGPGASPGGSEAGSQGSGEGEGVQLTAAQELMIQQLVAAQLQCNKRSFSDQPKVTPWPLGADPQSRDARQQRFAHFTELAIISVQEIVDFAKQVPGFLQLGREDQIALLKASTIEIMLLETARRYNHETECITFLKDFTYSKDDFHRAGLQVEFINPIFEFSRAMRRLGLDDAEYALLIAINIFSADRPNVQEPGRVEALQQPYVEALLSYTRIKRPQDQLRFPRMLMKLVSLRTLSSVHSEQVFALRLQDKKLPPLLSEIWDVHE

Row | Compound | IC50 [1] | IC50 [2] | EC50 [3]
1 | COc1ccc(/C=N/Nc2cc(N(C)C)nc(N(C)C)n2)cc1 | > 50 µM (not active) |  | 
2 | C/C(=N\c1cccc(C)c1)c1sc2ccccc2c1O |  | 22.7 µM (not active) | > 67.6 µM (inactive)
